Reference: ChEMBL document CHEMBL1201862, “PubChem BioAssay data set” (2004)
The source made the active and inactive calls.

How the values were obtained:
Vero [1] = assay: Vero 76 cell viability after compound exposure – Vero 76 cells, synthesized analogs, cytotoxicity control for West Nile virus antiviral project, SAR follow-up (AID 2414); assay type: functional; settings: Chlorocebus sabaeus
Vero [2] = assay: Vero cell viability after compound exposure – synthesized analogs, set II, cytotoxicity control for West Nile virus antiviral project, SAR follow-up (AID 2402); assay type: functional; settings: Chlorocebus sabaeus
Nonstructural protein 1 = Nonstructural protein 1 (Influenza A virus, UniProt Q194T2); assay type: functional, Influenza A virus (A/California/07/2009(H1N1))
Nonstructural protein 1, sequence (Q194T2 whole entry): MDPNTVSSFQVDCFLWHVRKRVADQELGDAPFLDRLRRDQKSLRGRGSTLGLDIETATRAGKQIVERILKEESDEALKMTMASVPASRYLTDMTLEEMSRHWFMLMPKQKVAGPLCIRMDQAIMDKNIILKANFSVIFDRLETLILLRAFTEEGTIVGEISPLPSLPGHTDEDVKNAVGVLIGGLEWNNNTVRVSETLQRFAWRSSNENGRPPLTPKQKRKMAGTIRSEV

[3] = viability loss in HepG2 liver cells – cell-based, ATP luminescence, cherry-pick, set 6, cytotoxicity control, dose response (AID 1053125); assay type: functional
Streptococcus = assay: GAS UMAA2166 growth inhibition – luminescence, BacTiterGlo, counter-screen for streptokinase expression inhibitor project, dose response (AID 1915); assay type: functional, organism-based;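 note: potency for reduction of bacterial viability or growth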
Galanin receptor type 2 = Galanin receptor type 2 (Homo sapiens, UniProt O43603); assay: Dose Response cell-based high-throughput screening assay to identify agonists of galanin receptor 2 (GALR2). [Related pubchem assays: 864 ]; assay type: functional
cells [4] = settings: HEK293
INS1 = assay: INS-1E survival protection against cytokine death – cell-based, luminescence, retest, dose response (AID 449756); assay type: functional; settings: Rattus norvegicus;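 note: cell death triggered by IL-1 beta plus TNF-alpha plus IFN-gamma mixture; protective hits raise ATP signal compared with cytokine alone wells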
cells [5] = settings: A549
[6] = HGIII-sPLA2 enzyme inhibition potency – biochemical, QFRET, IC50, dose response (AID 743457);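 note: green fluorescence rise as the enzyme cleaves BODIPY PC-A2 in liposomes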
[7] = tested on: Streptococcus sp. 'group A'; assay: Streptococcus pyogenes SK(-)GAS viability under kanamycin – luminescence, BacTiterGlo, confirmation, counter-screen for streptokinase expression inhibitor project, dose response (AID 1900); assay type: functional, organism-based
[8] = target: Voltage-gated inwardly rectifying potassium channel KCNH2 (Homo sapiens, UniProt Q12809); assay: concentration-dependent hERG rescue from blockers – cell-based, thallium flux, dose response (AID 2121); assay type: ADME
Voltage-gated inwardly rectifying potassium channel KCNH2, sequence (Q12809 whole entry): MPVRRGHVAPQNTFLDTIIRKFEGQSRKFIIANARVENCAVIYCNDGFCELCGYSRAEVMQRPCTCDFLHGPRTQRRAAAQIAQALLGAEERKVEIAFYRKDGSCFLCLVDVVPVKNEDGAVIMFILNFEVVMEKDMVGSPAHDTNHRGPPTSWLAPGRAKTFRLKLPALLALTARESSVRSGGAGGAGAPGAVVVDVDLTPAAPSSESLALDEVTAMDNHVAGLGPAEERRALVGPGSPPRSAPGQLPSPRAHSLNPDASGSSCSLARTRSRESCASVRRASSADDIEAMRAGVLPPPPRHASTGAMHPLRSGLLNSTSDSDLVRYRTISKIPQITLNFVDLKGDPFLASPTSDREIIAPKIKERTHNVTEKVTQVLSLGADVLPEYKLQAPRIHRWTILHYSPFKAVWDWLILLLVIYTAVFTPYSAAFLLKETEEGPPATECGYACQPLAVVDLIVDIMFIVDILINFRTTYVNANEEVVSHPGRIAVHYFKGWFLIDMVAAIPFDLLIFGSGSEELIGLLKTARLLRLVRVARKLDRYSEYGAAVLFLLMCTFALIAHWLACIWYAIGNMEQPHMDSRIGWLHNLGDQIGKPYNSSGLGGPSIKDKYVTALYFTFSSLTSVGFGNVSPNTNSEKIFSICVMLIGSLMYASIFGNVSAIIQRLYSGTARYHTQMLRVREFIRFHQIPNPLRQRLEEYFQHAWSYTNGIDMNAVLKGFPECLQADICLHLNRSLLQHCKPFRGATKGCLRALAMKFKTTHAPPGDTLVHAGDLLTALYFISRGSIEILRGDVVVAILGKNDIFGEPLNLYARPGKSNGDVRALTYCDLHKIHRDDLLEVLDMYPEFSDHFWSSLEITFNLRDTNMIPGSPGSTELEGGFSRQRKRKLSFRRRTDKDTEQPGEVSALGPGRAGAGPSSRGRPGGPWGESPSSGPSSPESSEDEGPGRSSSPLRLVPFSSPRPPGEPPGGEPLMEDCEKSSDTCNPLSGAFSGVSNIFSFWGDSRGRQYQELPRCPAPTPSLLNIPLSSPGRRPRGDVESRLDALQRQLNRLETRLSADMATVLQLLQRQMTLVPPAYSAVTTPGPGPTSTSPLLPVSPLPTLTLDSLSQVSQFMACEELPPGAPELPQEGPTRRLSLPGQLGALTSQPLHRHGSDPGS

[9] = Luminescence Cell-Based Dose Response HTS to Identify Activators of Luciferase Translation or Activity in H4 […] Cells. [Related pubchem assays: 1829 (Project Summary), 1814 (Primary HTS)]; assay type: functional
[10] = Luminescence Cell-Based Dose Confirmation HTS to Identify Activators of 5'UTR Stem-Loop Driven Alpha-Synuclein mRNA Translation in H4 Neuroglioblastoma Cells. [Related pubchem assays: 1829 (Project Summary), 1814 (Primary HTS)]; assay type: functional
H4 = assay: Luminescence Cell-Based Dose Response HTS to Identify Activators of 5'UTR Stem-Loop Driven Prion Protein mRNA Translation in H4 Neuroglioblastoma Cells. [Related pubchem assays: 1829 (Project Summary), 1814 (Primary HTS)]; assay type: functional; settings: Homo sapiens
[11] = target: Voltage-gated N-type calcium channel alpha-1B subunit/Amyloid beta A4 precursor protein-binding family A member 1 (Homo sapiens, UniProt Q00975+Q02410); assay type: protein assay
Voltage-gated N-type calcium channel alpha-1B subunit/Amyloid beta A4 precursor protein-binding family A member 1, sequence (Q00975 whole entry): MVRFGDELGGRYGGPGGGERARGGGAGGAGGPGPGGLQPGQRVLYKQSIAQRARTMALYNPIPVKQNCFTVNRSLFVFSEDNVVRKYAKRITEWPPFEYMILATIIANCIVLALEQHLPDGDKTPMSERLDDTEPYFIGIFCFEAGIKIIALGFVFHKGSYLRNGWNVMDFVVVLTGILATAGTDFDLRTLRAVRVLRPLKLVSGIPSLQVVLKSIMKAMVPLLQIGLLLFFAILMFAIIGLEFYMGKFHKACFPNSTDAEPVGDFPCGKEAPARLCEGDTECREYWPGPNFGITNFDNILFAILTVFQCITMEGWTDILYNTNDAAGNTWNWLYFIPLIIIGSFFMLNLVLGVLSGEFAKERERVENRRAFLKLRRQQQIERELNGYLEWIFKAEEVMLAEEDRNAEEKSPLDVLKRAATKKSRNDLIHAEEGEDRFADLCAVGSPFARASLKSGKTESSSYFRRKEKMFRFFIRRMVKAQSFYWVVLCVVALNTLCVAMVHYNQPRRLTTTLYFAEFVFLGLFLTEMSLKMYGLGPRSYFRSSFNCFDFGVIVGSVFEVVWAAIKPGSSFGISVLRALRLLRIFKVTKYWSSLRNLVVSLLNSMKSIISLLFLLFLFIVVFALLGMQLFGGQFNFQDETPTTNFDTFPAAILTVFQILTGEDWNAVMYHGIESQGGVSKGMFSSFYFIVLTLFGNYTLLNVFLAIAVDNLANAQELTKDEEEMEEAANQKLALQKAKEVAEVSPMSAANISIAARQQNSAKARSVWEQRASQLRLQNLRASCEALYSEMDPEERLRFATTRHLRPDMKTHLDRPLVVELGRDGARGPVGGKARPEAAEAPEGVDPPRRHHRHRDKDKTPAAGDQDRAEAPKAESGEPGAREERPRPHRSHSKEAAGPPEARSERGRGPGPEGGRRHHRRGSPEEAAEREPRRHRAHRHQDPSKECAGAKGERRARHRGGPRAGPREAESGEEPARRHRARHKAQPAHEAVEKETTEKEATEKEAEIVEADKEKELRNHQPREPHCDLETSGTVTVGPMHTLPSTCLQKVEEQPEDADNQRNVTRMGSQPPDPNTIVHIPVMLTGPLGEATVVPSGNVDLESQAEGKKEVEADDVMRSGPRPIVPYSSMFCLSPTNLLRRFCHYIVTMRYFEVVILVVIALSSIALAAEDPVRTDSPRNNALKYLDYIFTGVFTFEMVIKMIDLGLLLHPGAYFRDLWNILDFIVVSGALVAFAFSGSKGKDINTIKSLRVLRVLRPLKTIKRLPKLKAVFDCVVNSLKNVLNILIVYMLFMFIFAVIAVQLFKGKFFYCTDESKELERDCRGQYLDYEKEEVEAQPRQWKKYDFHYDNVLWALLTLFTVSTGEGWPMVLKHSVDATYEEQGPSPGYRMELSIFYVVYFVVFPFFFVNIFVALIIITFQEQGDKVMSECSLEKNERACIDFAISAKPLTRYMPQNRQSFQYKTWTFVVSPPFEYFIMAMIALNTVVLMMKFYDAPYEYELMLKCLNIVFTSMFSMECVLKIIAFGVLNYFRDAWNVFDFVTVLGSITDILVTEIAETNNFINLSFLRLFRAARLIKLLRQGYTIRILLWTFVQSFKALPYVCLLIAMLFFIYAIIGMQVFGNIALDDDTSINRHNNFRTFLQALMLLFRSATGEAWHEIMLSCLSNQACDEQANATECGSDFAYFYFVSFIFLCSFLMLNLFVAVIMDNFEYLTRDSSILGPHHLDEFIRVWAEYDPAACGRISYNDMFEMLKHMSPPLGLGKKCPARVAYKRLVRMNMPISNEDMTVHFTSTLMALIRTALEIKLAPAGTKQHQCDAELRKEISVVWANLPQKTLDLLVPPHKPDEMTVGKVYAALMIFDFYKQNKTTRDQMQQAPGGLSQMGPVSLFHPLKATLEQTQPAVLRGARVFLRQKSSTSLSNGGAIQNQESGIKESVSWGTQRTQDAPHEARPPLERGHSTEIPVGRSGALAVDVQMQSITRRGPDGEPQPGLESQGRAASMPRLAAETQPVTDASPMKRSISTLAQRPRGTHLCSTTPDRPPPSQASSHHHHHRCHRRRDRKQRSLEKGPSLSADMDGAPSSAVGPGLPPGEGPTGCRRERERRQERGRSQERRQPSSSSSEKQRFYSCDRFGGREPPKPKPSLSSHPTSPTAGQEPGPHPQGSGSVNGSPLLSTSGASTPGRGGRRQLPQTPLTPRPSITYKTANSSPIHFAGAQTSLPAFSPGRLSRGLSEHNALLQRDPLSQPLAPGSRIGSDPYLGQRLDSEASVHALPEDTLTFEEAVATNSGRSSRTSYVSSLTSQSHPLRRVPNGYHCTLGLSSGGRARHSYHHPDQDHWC
Voltage-gated N-type calcium channel alpha-1B subunit/Amyloid beta A4 precursor protein-binding family A member 1, sequence (Q02410 whole entry): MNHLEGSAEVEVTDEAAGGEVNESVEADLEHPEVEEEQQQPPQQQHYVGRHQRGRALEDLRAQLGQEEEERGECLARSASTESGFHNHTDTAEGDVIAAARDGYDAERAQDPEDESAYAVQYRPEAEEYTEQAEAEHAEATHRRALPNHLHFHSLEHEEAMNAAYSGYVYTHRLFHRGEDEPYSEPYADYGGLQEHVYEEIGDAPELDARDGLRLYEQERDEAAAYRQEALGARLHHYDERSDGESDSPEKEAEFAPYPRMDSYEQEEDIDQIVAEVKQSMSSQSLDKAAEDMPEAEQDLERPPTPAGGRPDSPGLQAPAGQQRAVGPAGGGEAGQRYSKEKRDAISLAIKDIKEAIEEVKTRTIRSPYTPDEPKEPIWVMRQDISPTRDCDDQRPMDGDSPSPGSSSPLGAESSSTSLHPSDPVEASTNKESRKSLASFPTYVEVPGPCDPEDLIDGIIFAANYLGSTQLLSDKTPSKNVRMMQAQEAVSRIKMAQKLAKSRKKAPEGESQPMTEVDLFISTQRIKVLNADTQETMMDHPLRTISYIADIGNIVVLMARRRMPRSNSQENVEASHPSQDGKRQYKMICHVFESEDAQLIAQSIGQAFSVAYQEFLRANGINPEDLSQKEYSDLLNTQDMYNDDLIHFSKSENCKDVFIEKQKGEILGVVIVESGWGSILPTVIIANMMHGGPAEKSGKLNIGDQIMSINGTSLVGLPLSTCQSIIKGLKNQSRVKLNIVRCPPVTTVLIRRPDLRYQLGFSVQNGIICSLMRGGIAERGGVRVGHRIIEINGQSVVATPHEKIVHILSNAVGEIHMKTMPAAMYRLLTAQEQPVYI

Genome polyprotein = Genome polyprotein (Hepatitis C virus, UniProt Q2Q167); assay: disruption of hepatitis C core self-association – biochemical, TR-FRET, dose response (AID 2159); design: species or system Hepacivirus hominis;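 note: blocks dimerization of HCV core protein measured by TR-FRET between tagged core106 pairs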
Genome polyprotein, sequence (Q2Q167 whole entry): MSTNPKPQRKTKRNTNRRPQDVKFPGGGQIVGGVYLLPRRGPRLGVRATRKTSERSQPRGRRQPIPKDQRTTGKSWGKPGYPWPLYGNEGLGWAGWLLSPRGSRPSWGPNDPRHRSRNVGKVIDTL

[12] = target: T1, Tyrosine-protein phosphatase non-receptor type 7 (Homo sapiens, UniProt P35236); assay: HePTP tyrosine phosphatase activity blockers – biochemical, absorbance, leukemia target, primary screen (AID 521); assay type: functional
T1 sequence (P35236 whole entry): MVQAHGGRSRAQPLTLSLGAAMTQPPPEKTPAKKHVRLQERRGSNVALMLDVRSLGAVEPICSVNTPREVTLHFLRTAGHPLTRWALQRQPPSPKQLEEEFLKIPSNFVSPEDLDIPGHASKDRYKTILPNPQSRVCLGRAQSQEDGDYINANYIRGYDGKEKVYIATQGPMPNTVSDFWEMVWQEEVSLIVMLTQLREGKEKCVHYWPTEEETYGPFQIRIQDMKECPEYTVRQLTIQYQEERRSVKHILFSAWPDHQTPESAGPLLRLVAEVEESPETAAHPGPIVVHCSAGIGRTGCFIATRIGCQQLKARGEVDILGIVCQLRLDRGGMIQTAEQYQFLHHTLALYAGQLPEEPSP

[13] = target: Diphosphomevalonate decarboxylase (Streptococcus pneumoniae serotype 2 (strain D39 / NCTC 7466), UniProt Q9FD53); assay: diphosphomevalonate decarboxylase inhibitor confirmation – biochemical, cuvette format, coupled NADH fluorescence (AID 1028); assay type: functional
Diphosphomevalonate decarboxylase, sequence (Q9FD53 whole entry): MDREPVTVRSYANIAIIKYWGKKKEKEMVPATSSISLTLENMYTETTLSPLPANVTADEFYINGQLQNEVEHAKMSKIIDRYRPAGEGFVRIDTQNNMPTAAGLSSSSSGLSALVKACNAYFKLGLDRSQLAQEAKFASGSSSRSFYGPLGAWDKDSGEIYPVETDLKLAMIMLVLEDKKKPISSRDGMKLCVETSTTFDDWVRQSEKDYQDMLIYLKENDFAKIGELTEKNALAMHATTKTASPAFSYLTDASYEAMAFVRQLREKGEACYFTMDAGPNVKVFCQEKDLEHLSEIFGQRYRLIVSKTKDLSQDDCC

## OC1c2cc(Br)ccc2N=C2CCCCCN21 (centres undefined)
Vero [1]
  CC50: 61 µM (active)
Vero [2]
  CC50: 37.6 µM (active)

## Cc1cccc2sc(NNC(=O)c3ccc(S(=O)(=O)N4CCCC(C)C4)cc3)nc12 (centres undefined)
Nonstructural protein 1
  IC50: > 100 µM (active)
[3]
  AC50: 4.56 µM (active)
Streptococcus
  EC50: 8.56 µM (active)
Galanin receptor type 2
  EC50: > 55.7 µM (not active)
Cells [4]
  AC50: 4.7 µM (active)
INS1
  AC50: 1.12 µM (active)
Cells [5]
  AC50: 8.96 µM (active)
[6]
  IC50: 21.3 µM (inactive)
[7]
  EC50: 0.493 µM (active)

## CCOC(=O)c1sc(NC(=S)NC(=O)c2ccccc2)nc1C
[8]
  EC50: 3.68 µM (active)
[9]
  EC50: 7.98 µM (active)
[10]
  EC50: 17.6 µM (active)
H4
  EC50: 25 µM (active)

## Nc1cccc(-c2nc3cc(S(=O)(=O)c4ccc5oc(-c6cccc(N)c6)nc5c4)ccc3o2)c1
[11]
  IC50: 13.2 µM (active)

## Sc1nc(Cc2ccccc2)nc2ccccc12
Genome polyprotein
  IC50: > 49.8 µM (not active)

## O=C(Nc1nncs1)c1c(F)c(F)c(F)c(F)c1F
[12]
  IC50: > 100 µM (not active)

## O=C(NCc1ccccc1)c1ccc(-n2sc3ccccc3c2=O)cc1
[13]
  IC50: 9.98 µM (active)
